This note sets out measurements from PubChem BioAssay AID248 (DTP/NCI, 2004).

“And” between values parts separate entries of the source, which are not always exact repeats. Identical values can stand only once. Inconclusive results and toxic doses are left out.

The test system of the assay is L1210 leukemia ip in BDF1 mice, survival T/C. Put plainly: NCI In Vivo Anticancer Drug Screen. Data for tumor model L1210 Leukemia (intraperitoneal) in B6D2F1 (BDF1) mice. To be noted: endpoint: mean survival time, higher = longer survival. Summed up: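 Ratio derived from survival: compound-dosed mice over vehicle-dosed mice, all bearing a transplantable tumor.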
[1] abbreviates: dose: 100.0 mg/kg/injection, schedule: Q01DX001 (ip), vehicle: saline.
Where [2] appears, read: dose: 200.0 mg/kg/injection, schedule: Q01DX001 (ip), vehicle: saline.
Setting [3] is: dose: 400.0 mg/kg/injection, schedule: Q01DX001 (ip), vehicle: saline.
The mark [4] stands for this setting: dose: 50.0 mg/kg/injection, schedule: Q01DX009 (ip), vehicle: saline.
Setting [5] is: dose: 100.0 mg/kg/injection, schedule: Q04DX003 (ip), vehicle: saline.
Setting [6] is: dose: 200.0 mg/kg/injection, schedule: Q01DX009 (ip), vehicle: saline.
Setting [7] is: dose: 200.0 mg/kg/injection, schedule: Q04DX003 (ip), vehicle: saline.
Where [8] appears, read: dose: 100.0 mg/kg/injection, schedule: Q01DX009 (ip), vehicle: saline.

For the compound `Clc1ccccc1N1CCN(c2c3c(nc4ccccc24)CCCCC3)CC1`, the T/C under setting [1] was 97 % of control, the T/C under setting [2] is 103 % of control and the T/C under setting [3] was 97 % of control.
`C=C1C(=O)OCC2C(C(=O)O)=CC3C(C)C(C)=CC123` (stereo not drawn): the T/C is 108 % of control (dose: 20.0 mg/kg/injection, schedule: Q01DX009 (ip), vehicle: saline with Tween-80) and 111 % of control (dose: 40.0 mg/kg/injection, schedule: Q01DX009 (ip), vehicle: saline with Tween-80).
`CC(C)NC(=O)Nc1cccc(Cl)c1`: the T/C was 96 % of control (dose: 100.0 mg/kg/injection, schedule: Q04DX003 (ip), vehicle: gum acacia); 94 % of control (dose: 200.0 mg/kg/injection, schedule: Q04DX003 (ip), vehicle: gum acacia); 100 % of control (dose: 400.0 mg/kg/injection, schedule: Q04DX003 (ip), vehicle: gum acacia).
Take `CC(=O)CC(=O)NCC(CCN1CCCCC1)(c1cccc2ccccc12)C(C)C` (stereo not drawn): the T/C (dose: 25.0 mg/kg/injection, schedule: Q01DX009 (ip), vehicle: Klucel (hydroxypropylcellulose) (HPC)) was 106 % of control and the T/C (dose: 50.0 mg/kg/injection, schedule: Q01DX009 (ip), vehicle: Klucel (hydroxypropylcellulose) (HPC)) is 95 % of control.
`O=c1[nH]c(=S)[nH]c(=S)[nH]1`: the T/C by setting is: (dose: 100.0 mg/kg/injection, schedule: Q01DX Z (ip), vehicle: methylcellulose (MC)) 97 % of control; (dose: 200.0 mg/kg/injection, schedule: Q01DX Z (ip), vehicle: methylcellulose (MC)) 104 % of control.
Turning to `ClC(c1ccccc1)c1nc2ccccc2[nH]1` (stereo not drawn), the T/C under setting [1] was 94 % of control and the T/C under setting [2] was 96 % of control.
Take `Cc1nc(CON)cs1`: the T/C was 92 % of control under setting [4], 100 % of control under setting [5], 90 % of control under setting [6] and 92 % of control under setting [7].
Take `CC(C(=O)O)(c1c[nH]c2ccccc12)c1c[nH]c2ccccc12`: the T/C reads like this: (dose: 50.0 mg/kg/injection, schedule: Q01DX001 (ip), vehicle: saline) 106 % of control; under setting [1], 103 % of control; under setting [2], 92 % of control; under setting [3], 86 % of control.
Regarding `CN=C(N)C(N)=NC`, the T/C by setting is: (dose: 100.0 mg/kg/injection, schedule: Q04DX003 (ip), vehicle: saline with Tween-80) 104 % of control; (dose: 200.0 mg/kg/injection, schedule: Q04DX003 (ip), vehicle: saline with Tween-80) 102 % of control; (dose: 400.0 mg/kg/injection, schedule: Q04DX003 (ip), vehicle: saline with Tween-80) 95 % of control.
For `C1CCN(CCC2CCNCC2)C1`, the T/C (dose: 25.0 mg/kg/injection, schedule: Q01DX009 (ip), vehicle: saline) is 106 % of control; the T/C (dose: 25.0 mg/kg/injection, schedule: Q04DX003 (ip), vehicle: saline) is 97 % of control; the T/C under setting [4] is 95 % of control; the T/C (dose: 50.0 mg/kg/injection, schedule: Q04DX003 (ip), vehicle: saline) is 97 % of control; the T/C under setting [8] was 106 % of control; the T/C under setting [5] was 96 % of control and 100 % of control.
As for `Cc1ccc(S(=O)(=O)N2CN3CN(C2)CN(S(=O)(=O)c2ccc(C)cc2)C3)cc1`, the T/C was 95 % of control under setting [5]; 86 % of control under setting [7]; 95 % of control (dose: 400.0 mg/kg/injection, schedule: Q04DX003 (ip), vehicle: saline).
On to `Fc1cc(F)c2ncccc2c1`, for which the T/C was 103 % of control (dose: 12.5 mg/kg/injection, schedule: Q01DX001 (ip), vehicle: carboxymethylcellulose (CMC)); 98 % of control (dose: 25.0 mg/kg/injection, schedule: Q01DX001 (ip), vehicle: carboxymethylcellulose (CMC)); 101 % of control (dose: 50.0 mg/kg/injection, schedule: Q01DX001 (ip), vehicle: carboxymethylcellulose (CMC)); 117 % of control (dose: 75.0 mg/kg/injection, schedule: Q01DX001 (ip), vehicle: carboxymethylcellulose (CMC)); 118 % of control (dose: 150.0 mg/kg/injection, schedule: Q01DX001 (ip), vehicle: carboxymethylcellulose (CMC)).
`CCOC(=O)C1(C(=O)OCC)CCC(OCC)N1C(=O)c1ccccc1[N+](=O)[O-]` (stereo not drawn): the T/C is 94 % of control (dose: 25.0 mg/kg/injection, schedule: Q04DX003 (ip), vehicle: Klucel (hydroxypropylcellulose) (HPC)); 99 % of control (dose: 50.0 mg/kg/injection, schedule: Q04DX003 (ip), vehicle: Klucel (hydroxypropylcellulose) (HPC)); 89 % of control (dose: 100.0 mg/kg/injection, schedule: Q04DX003 (ip), vehicle: Klucel (hydroxypropylcellulose) (HPC)).
Consider `O=C(O)C(=O)Cc1cccc(Cl)c1[N+](=O)[O-]`, for which the T/C was 96 % of control (dose: 75.0 mg/kg/injection, schedule: Q04DX003 (ip), vehicle: saline); 102 % of control (dose: 150.0 mg/kg/injection, schedule: Q04DX003 (ip), vehicle: saline); 98 % of control (dose: 300.0 mg/kg/injection, schedule: Q04DX003 (ip), vehicle: saline).
For `CCCNP(=O)(NCCC)OC1CC(C)(C)N(O)C(C)(C)C1`, the T/C is, setting by setting: (dose: 100.0 mg/kg/injection, schedule: Q04DX002 (ip), vehicle: water) 90 % of control; (dose: 200.0 mg/kg/injection, schedule: Q04DX002 (ip), vehicle: water) 87 % of control; (dose: 400.0 mg/kg/injection, schedule: Q04DX002 (ip), vehicle: water) 97 % of control.
Regarding `Nc1n[nH]c2cccc(Cl)c12`, the T/C was 96 % of control under setting [4], 104 % of control under setting [8] and 96 % of control under setting [6].
For the compound `ClCCN1CCC2(CC1)SSC1(CCN(CCCl)CC1)S2`, the T/C by setting is: (dose: 10.0 mg/kg/injection, schedule: Q01DX009 (ip), vehicle: saline) 107 % of control; (dose: 20.0 mg/kg/injection, schedule: Q01DX001 (ip), vehicle: Klucel (hydroxypropylcellulose) (HPC)) 108 % of control; (dose: 20.0 mg/kg/injection, schedule: Q01DX009 (ip), vehicle: saline) 103 % of control; (dose: 40.0 mg/kg/injection, schedule: Q01DX001 (ip), vehicle: Klucel (hydroxypropylcellulose) (HPC)) 121 % of control.
Consider `CN(C)S(=O)(=O)c1ccc(NC(=O)C(Cl)Cl)cc1`, for which the T/C was 100 % of control (dose: 100.0 mg/kg/injection, schedule: Q01DX001 (ip), vehicle: other); 100 % of control (dose: 100.0 mg/kg/injection, schedule: Q01DX009 (ip), vehicle: saline with Tween-80); 103 % of control (dose: 100.0 mg/kg/injection, schedule: Q04DX003 (ip), vehicle: other); 107 % of control (dose: 200.0 mg/kg/injection, schedule: Q01DX001 (ip), vehicle: other); 100 % of control (dose: 200.0 mg/kg/injection, schedule: Q01DX009 (ip), vehicle: saline with Tween-80); 101 % of control (dose: 200.0 mg/kg/injection, schedule: Q04DX003 (ip), vehicle: other). Moreover, the T/C is 100 % of control (dose: 400.0 mg/kg/injection, schedule: Q01DX001 (ip), vehicle: other); 86 % of control (dose: 400.0 mg/kg/injection, schedule: Q01DX009 (ip), vehicle: saline with Tween-80); 101 % of control (dose: 400.0 mg/kg/injection, schedule: Q04DX003 (ip), vehicle: other).
Consider `Oc1ccc(N=Cc2ccccc2O)cc1`, for which the T/C was 90 % of control under setting [1]; 108 % of control (dose: 116.0 mg/kg/injection, schedule: Q01DX015 (ip), vehicle: steriod suspending solution); 123 % of control (dose: 175.0 mg/kg/injection, schedule: Q01DX015 (ip), vehicle: steriod suspending solution); 100 % of control (dose: 178.0 mg/kg/injection, schedule: Q01DX001 (ip), vehicle: steriod suspending solution); 207 % of control under setting [2]; 103 % of control (dose: 267.0 mg/kg/injection, schedule: Q01DX001 (ip), vehicle: steriod suspending solution). For the same compound, the T/C (dose: 270.0 mg/kg/injection, schedule: Q01DX Z (ip), vehicle: carboxymethylcellulose (CMC)) was 104 % of control; the T/C under setting [3] is 260 % of control; the T/C (dose: 400.0 mg/kg/injection, schedule: Q01DX001 (ip), vehicle: steriod suspending solution) was 101 % of control; the T/C (dose: 400.0 mg/kg/injection, schedule: Q01DX Z (ip), vehicle: carboxymethylcellulose (CMC)) is 115 % of control; the T/C (dose: 600.0 mg/kg/injection, schedule: Q01DX001 (ip), vehicle: steriod suspending solution) is 105 % of control.
For `O=C(c1ccc2cc(Cl)c3ccccc3c2c1)C(Br)CBr` (stereo not drawn), the T/C was 88 % of control (dose: 55.0 mg/kg/injection, schedule: Q01DX Z (ip), vehicle: methylcellulose (MC)); 93 % of control (dose: 83.0 mg/kg/injection, schedule: Q01DX Z (ip), vehicle: methylcellulose (MC)); 93 % of control (dose: 125.0 mg/kg/injection, schedule: Q01DX Z (ip), vehicle: methylcellulose (MC)).
